Test results from PMC10866072, “Design, synthesis, molecular modelling and biological evaluation of novel 6-amino-5-cyano-2-thiopyrimidine derivatives as potent anticancer agents against leukemia and apoptotic inducers” (Journal of Enzyme Inhibition and Medicinal Chemistry, 2024).

Assays:
SF-268 = type: cell-based; settings: Homo sapiens, one dose 10^-5 M, 48 h, read-out: % growth
NCI/ADR-RES = type: cell-based; settings: Homo sapiens, one dose 10^-5 M, 48 h
UACC-62 = type: cell-based; settings: Homo sapiens, one dose 10^-5 M, 48 h
T-47D = type: cell-based; settings: Homo sapiens, T47D, one dose 10^-5 M, 48 h, read-out: % growth
RPMI-8226 = type: cell-based; settings: Homo sapiens, one dose 10^-5 M, 48 h
A549/ATCC = type: cell-based; settings: Homo sapiens, one dose 10^-5 M, 48 h
MDA-MB-231/ATCC = type: cell-based; settings: Homo sapiens, one dose 10^-5 M, 48 h
K-562 = type: cell-based; settings: Homo sapiens, K562, one dose 10^-5 M, 48 h
MCF7 = type: cell-based; settings: Homo sapiens, one dose 10^-5 M, 48 h, read-out: % growth
SK-MEL-2 = type: cell-based; settings: Homo sapiens, one dose 10^-5 M, 48 h
LOX IMVI = type: cell-based; settings: Homo sapiens, one dose 10^-5 M, 48 h, read-out: % growth
M14 = type: cell-based; settings: Homo sapiens, one dose 10^-5 M, 48 h
786-0 = type: cell-based; settings: Homo sapiens, one dose 10^-5 M, 48 h
DU-145 = type: cell-based; settings: Homo sapiens, one dose 10^-5 M, 48 h
SK-OV-3 = type: cell-based; settings: Homo sapiens, one dose 10^-5 M, 48 h
[1] = system: full NCI 60 cell lines panel; settings: for activity at 10 µM: Homo sapiens, 60 cell, 48 h, read-out: Mean % growth; for activity on all 60 cancer cell lines tested (in words): one dose
HCT-15 = type: cell-based; settings: Homo sapiens, one dose 10^-5 M, 48 h, read-out: % growth
NCI-H23 = type: cell-based; settings: Homo sapiens, one dose 10^-5 M, 48 h, read-out: % growth
SK-MEL-5 = type: cell-based; settings: Homo sapiens, one dose 10^-5 M, 48 h, read-out: % growth
KM12 = type: cell-based; settings: Homo sapiens, one dose 10^-5 M, 48 h
SNB-19 = type: cell-based; settings: Homo sapiens, one dose 10^-5 M, 48 h, read-out: % growth
BT-549 = type: cell-based; settings: Homo sapiens, one dose 10^-5 M, 48 h
MOLT-4 = type: cell-based; settings: Homo sapiens, one dose 10^-5 M, 48 h, read-out: % growth
OVCAR-3 = type: cell-based; settings: Homo sapiens, one dose 10^-5 M, 48 h
MDA-MB-435 = type: cell-based; settings: Homo sapiens, one dose 10^-5 M, 48 h, read-out: % growth
NCI-H226 = type: cell-based; settings: Homo sapiens, one dose 10^-5 M, 48 h
SW-620 = type: cell-based; settings: Homo sapiens, one dose 10^-5 M, 48 h
TK-10 = type: cell-based; settings: Homo sapiens, one dose 10^-5 M, 48 h
HCC-2998 = type: cell-based; settings: Homo sapiens, one dose 10^-5 M, 48 h
MALME-3M = type: cell-based; settings: Homo sapiens, one dose 10^-5 M, 48 h
IGROV1 = type: cell-based; settings: Homo sapiens, IGROV-1, one dose 10^-5 M, 48 h, read-out: % growth
SK-MEL-28 = type: cell-based; settings: Homo sapiens, one dose 10^-5 M, 48 h
HL-60(TB) = type: cell-based; settings: Homo sapiens, one dose 10^-5 M, 48 h
RXF 393 = type: cell-based; settings: Homo sapiens, RXF 393, 48 h, one dose 10^-5 M, 48 h, read-out: % growth
HCT-116 = type: cell-based; settings: Homo sapiens, one dose 10^-5 M, 48 h, read-out: % growth
SF-295 = type: cell-based; settings: Homo sapiens, one dose 10^-5 M, 48 h
CCRF-CEM = type: cell-based; settings: Homo sapiens, one dose 10^-5 M, 48 h
OVCAR-5 = type: cell-based; settings: Homo sapiens, one dose 10^-5 M, 48 h
EKVX = type: cell-based; settings: Homo sapiens, one dose 10^-5 M, 48 h
NCI-H522 = type: cell-based; settings: Homo sapiens, one dose 10^-5 M, 48 h
A498 = type: cell-based; settings: Homo sapiens, one dose 10^-5 M, 48 h
U251 = type: cell-based; settings: Homo sapiens, U-251, one dose 10^-5 M, 48 h
SR = type: cell-based; settings: Homo sapiens, one dose 10^-5 M, 48 h
OVCAR-8 = type: cell-based; settings: Homo sapiens, one dose 10^-5 M, 48 h
HT29 = type: cell-based; settings: Homo sapiens, HT-29, one dose 10^-5 M, 48 h
SN12C = type: cell-based, human; settings: Homo sapiens, one dose 10^-5 M, 48 h
ACHN = type: cell-based; settings: Homo sapiens, one dose 10^-5 M, 48 h
HOP-62 = type: cell-based; settings: Homo sapiens, one dose 10^-5 M, 48 h
UACC-257 = type: cell-based; settings: Homo sapiens, one dose 10^-5 M, 48 h
CAKI-1 = type: cell-based; settings: Homo sapiens, CAKI-1, 48 h, one dose 10^-5 M, 48 h
SF-539 = type: cell-based; settings: Homo sapiens, one dose 10^-5 M, 48 h
NCI-H460 = type: cell-based; settings: Homo sapiens, one dose 10^-5 M, 48 h, read-out: % growth
UO-31 = type: cell-based; settings: Homo sapiens, UO-31, 48 h, one dose 10^-5 M, 48 h
OVCAR-4 = type: cell-based; settings: Homo sapiens, one dose 10^-5 M, 48 h
PC-3 = type: cell-based; settings: Homo sapiens, one dose 10^-5 M, 48 h
HS 578T = type: cell-based; settings: Homo sapiens; one dose 10^-5 M, 48 h; HS 578T; read-out: % growth
COLO 205 = type: cell-based; settings: Homo sapiens, one dose 10^-5 M, 48 h
MDA-MB-468 = type: cell-based; settings: Homo sapiens, one dose 10^-5 M, 48 h
HOP-92 = type: cell-based; settings: Homo sapiens, one dose 10^-5 M, 48 h

## N=C(NN=Cc1ccccc1)c1c(N)nc(S)nc1-c1ccc(Cl)cc1Cl [Compound 4m, 4-Amino-6–(2,4-dichlorophenyl)-2-mercapto-N'-[phenylmethylene]pyrimidine-5-carboximidohydrazide]
SF-268
  activity at 10 µM: 105%
NCI/ADR-RES
  cell growth percent at 10 µM: 105%
UACC-62
  % growth at 10 µM: 94.3%
T-47D
  activity at 10 µM: 103%
RPMI-8226
  % growth at 10 µM: 104%
A549/ATCC
  % growth at 10 µM: 97.4%
MDA-MB-231/ATCC
  % growth at 10 µM: 94.4%
K-562
  % growth at 10 µM: 95.8%
MCF7
  activity at 10 µM: 89.1%
SK-MEL-2
  % growth at 10 µM: 120%
LOX IMVI
  activity at 10 µM: 100%
M14
  % growth at 10 µM: 96.2%
786-0
  % growth at 10 µM: 92.5%
DU-145
  % growth at 10 µM: 111%
SK-OV-3
  % growth at 10 µM: 95.6%
[1]
  activity at 10 µM: 101%
  activity on all 60 cancer cell lines tested (in words): weak activity
HCT-15
  activity at 10 µM: 101%
NCI-H23
  activity at 10 µM: 98.7%
SK-MEL-5
  activity at 10 µM: 103%
KM12
  % growth at 10 µM: 103%
SNB-19
  activity at 10 µM: 95.8%
BT-549
  % cell growth at 10 µM: 88.5%
MOLT-4
  activity at 10 µM: 96.2%
OVCAR-3
  % growth at 10 µM: 109%
MDA-MB-435
  activity at 10 µM: 110%
NCI-H226
  % growth at 10 µM: 92%
SW-620
  % growth at 10 µM: 109%
TK-10
  % cell growth at 10 µM: 140%
HCC-2998
  % growth at 10 µM: 105%
MALME-3M
  % growth at 10 µM: 85.7%
IGROV1
  activity at 10 µM: 101%
SK-MEL-28
  % cell growth at 10 µM: 104%
HL-60(TB)
  % growth at 10 µM: 97.1%
RXF 393
  activity at 10 µM: 89.5%
HCT-116
  activity at 10 µM: 103%
SF-295
  % cell growth at 10 µM: 86.9%
CCRF-CEM
  % cell growth at 10 µM: 105%
OVCAR-5
  percent cell growth at 10 µM: 108%
EKVX
  % cell growth at 10 µM: 103%
NCI-H522
  % growth at 10 µM: 109%
A498
  % growth at 10 µM: 125%
U251
  % growth at 10 µM: 97.3%
SR
  percent cell growth at 10 µM: 83.2%
OVCAR-8
  % growth of cells at 10 µM: 109%
HT29
  % growth at 10 µM: 108%
SN12C
  % growth at 10 µM: 95.9%
ACHN
  % growth at 10 µM: 108%
HOP-62
  % growth at 10 µM: 96.6%
UACC-257
  percent cell growth at 10 µM: 106%
CAKI-1
  % growth at 10 µM: 96%
SF-539
  % growth at 10 µM: 100%
NCI-H460
  activity at 10 µM: 108%
UO-31
  % cell growth at 10 µM: 90.1%
OVCAR-4
  % growth at 10 µM: 115%
PC-3
  percent cell growth at 10 µM: 103%
HS 578T
  activity at 10 µM: 102%
COLO 205
  % growth at 10 µM: 115%
MDA-MB-468
  percent cell growth at 10 µM: 91.1%
HOP-92
  % growth at 10 µM: 69.2%

## N=C(NN=Cc1ccc(Cl)cc1)c1c(N)nc(S)nc1-c1ccc(Cl)cc1Cl [Compound 4n, 4-Amino-N'-[(4-chlorophenyl)methylene]-6–(2,4-dichlorophenyl)-2-mercapto pyrimidine-5-carboximidohydrazide]
SF-268
  activity at 10 µM: 100%
NCI/ADR-RES
  cell growth percent at 10 µM: 105%
UACC-62
  % growth at 10 µM: 90.9%
T-47D
  activity at 10 µM: 92.6%
RPMI-8226
  % growth at 10 µM: 102%
A549/ATCC
  % growth at 10 µM: 95.8%
MDA-MB-231/ATCC
  % growth at 10 µM: 82.5%
K-562
  % growth at 10 µM: 89.9%
MCF7
  activity at 10 µM: 83.6%
SK-MEL-2
  % growth at 10 µM: 108%
LOX IMVI
  activity at 10 µM: 95.4%
M14
  % growth at 10 µM: 95.6%
786-0
  % growth at 10 µM: 78%
DU-145
  % growth at 10 µM: 109%
SK-OV-3
  % growth at 10 µM: 92.2%
[1]
  activity at 10 µM: 97.2%
  activity on all 60 cancer cell lines tested (in words): weak activity
HCT-15
  activity at 10 µM: 101%
NCI-H23
  activity at 10 µM: 92.9%
SK-MEL-5
  activity at 10 µM: 103%
KM12
  % growth at 10 µM: 108%
SNB-19
  activity at 10 µM: 90.9%
BT-549
  % cell growth at 10 µM: 92.6%
MOLT-4
  activity at 10 µM: 92.4%
OVCAR-3
  % growth at 10 µM: 110%
MDA-MB-435
  activity at 10 µM: 104%
NCI-H226
  % growth at 10 µM: 86.3%
SW-620
  % growth at 10 µM: 106%
TK-10
  % cell growth at 10 µM: 143%
HCC-2998
  % growth at 10 µM: 101%
MALME-3M
  % growth at 10 µM: 81.6%
IGROV1
  activity at 10 µM: 97%
SK-MEL-28
  % cell growth at 10 µM: 106%
HL-60(TB)
  % growth at 10 µM: 108%
RXF 393
  activity at 10 µM: 84.7%
HCT-116
  activity at 10 µM: 94.6%
SF-295
  % cell growth at 10 µM: 73.4%
CCRF-CEM
  % cell growth at 10 µM: 106%
OVCAR-5
  percent cell growth at 10 µM: 105%
EKVX
  % cell growth at 10 µM: 108%
NCI-H522
  % growth at 10 µM: 90.6%
A498
  % growth at 10 µM: 122%
U251
  % growth at 10 µM: 70.5%
SR
  percent cell growth at 10 µM: 90.6%
OVCAR-8
  % growth of cells at 10 µM: 91.2%
HT29
  % growth at 10 µM: 121%
SN12C
  % growth at 10 µM: 90.1%
ACHN
  % growth at 10 µM: 83.7%
HOP-62
  % growth at 10 µM: 83.1%
UACC-257
  percent cell growth at 10 µM: 108%
CAKI-1
  % growth at 10 µM: 98.6%
SF-539
  % growth at 10 µM: 87.3%
NCI-H460
  activity at 10 µM: 102%
UO-31
  % cell growth at 10 µM: 93.2%
OVCAR-4
  % growth at 10 µM: 107%
PC-3
  percent cell growth at 10 µM: 102%
HS 578T
  activity at 10 µM: 102%
COLO 205
  % growth at 10 µM: 114%
MDA-MB-468
  percent cell growth at 10 µM: 96.1%
HOP-92
  % growth at 10 µM: 64.2%
